Converted amounts (≈) assume the structure as drawn. Where two headings read alike, the source gives them in different places. Starred links: 1 amine or outer side, 2 acyl side, 3 side chain; linkers in the order of their positions; H or OH if unused. Non-standard residues stand in square brackets, D forms with d. Residues, ends and D or L forms follow the SMILES beside them. Groups on a side chain read outwards from the residue. *: point of attachment. γGlu = O=C(O)[C@H](CCC(=O)[*:2])N[*:1]; Palmitoyl = CCCCCCCCCCCCCCCC(=O)*; AEEA = NCCOCCOCC(=O)O
Key:
[1] = physchem
[2] = target: GLP-1R (Homo sapiens, UniProt P43220); experiment: GLP-1 receptor-mediated cAMP induction, luciferase reporter gene antagonism assay; format: cell-based; parameters: host or cells: HEK 293; settings: antagonism of 0.05 nM GLP-1, HEK 293 cells
Sequence of GLP-1R (P43220 24-463): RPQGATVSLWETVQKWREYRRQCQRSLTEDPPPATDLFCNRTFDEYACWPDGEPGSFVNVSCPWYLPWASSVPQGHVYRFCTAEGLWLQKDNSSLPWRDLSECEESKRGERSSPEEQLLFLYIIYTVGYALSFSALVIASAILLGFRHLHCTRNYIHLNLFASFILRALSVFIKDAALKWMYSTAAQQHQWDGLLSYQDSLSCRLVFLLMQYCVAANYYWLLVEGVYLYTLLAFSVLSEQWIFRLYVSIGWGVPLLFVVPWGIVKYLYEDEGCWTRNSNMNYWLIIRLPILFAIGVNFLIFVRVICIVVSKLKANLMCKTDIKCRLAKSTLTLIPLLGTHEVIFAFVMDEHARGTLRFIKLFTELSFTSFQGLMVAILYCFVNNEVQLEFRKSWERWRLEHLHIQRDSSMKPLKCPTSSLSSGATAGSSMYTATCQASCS
Method in brief: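 HEK 293 cells cotransfected with human GLP-1 receptor and CRE-luciferase were serum-deprived 16 h, then given serial peptide dilutions followed by 0.05 nM GLP-1 and incubated 5 h at 37° C.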

[3] = Solubility in buffer; settings: 80 mM ammonium bicarbonate buffer, pH 7.7
[4] = pH 7.7, Solubility 80 mM AmeBicarb pH7.7
[5] = Table 5, d-AA variants of 9-40am Jant4 K40[C16], read-out: Bioactivity KC50

SMILES	solubility [1, 4] [µg/mL]	solubility [3] [µg/mL]	IC50 [2, 5] [nM]	other results
CCCCCCCCCCCCCCCC(=O)NCCCC[C@H](NC(=O)[C@H](CO)NC(=O)[C@@H]1CCCN1C(=O)[C@@H]1CCCN1C(=O)[C@@H]1CCCN1C(=O)[C@H](C)NC(=O)CNC(=O)[C@H](CO)NC(=O)[C@H](CO)NC(=O)[C@@H]1CCCN1C(=O)CNC(=O)CNC(=O)C(C)(C)NC(=O)[C@H](CCCCN)NC(=O)[C@H](CC(C)C)NC(=O)[C@H](Cc1c[nH]c2ccccc12)NC(=O)[C@H](C)NC(=O)[C@@H](NC(=O)[C@H](Cc1ccccc1)NC(=O)[C@H](CCC(=O)O)NC(=O)[C@H](CCCNC(=N)N)NC(=O)[C@@H](NC(=O)[C@H](C)NC(=O)[C@H](CCC(N)=O)NC(=O)[C@H](CCC(=O)O)NC(=O)[C@H](CCC(=O)O)NC(=O)[C@H](CC(C)C)NC(=O)[C@H](Cc1ccc(O)cc1)NC(=O)[C@H](CO)NC(=O)[C@H](CO)NC(=O)[C@@H](NC(=O)[C@@H](N)CC(=O)O)C(C)C)C(C)C)[C@@H](C)CC)C(N)=O [SEQ ID NO: 43]	–	–	–	solubility ([1]; pH 7.7, Solubility [mg/mL] 80 mM AmBicarb pH7.7): 18900 µg/mL (≈ 5210 µM); solubility ([1]; pH 7.7, Solubility [mg/mL] PBS pH7.7): 200 µg/mL (≈ 55.2 µM); IC50 ([2]; Table 4, Aib variants of 9-40am Jant4 K40[C16], read-out: Bioactivity IC50): 13 nM
CCCCCCCCCCCCCCCC(=O)N[C@@H](CCC(=O)NCCOCCOCC(=O)NCCCC[C@H](NC(=O)[C@H](CO)NC(=O)[C@@H]1CCCN1C(=O)[C@@H]1CCCN1C(=O)[C@@H]1CCCN1C(=O)[C@H](C)NC(=O)CNC(=O)[C@H](CO)NC(=O)[C@H](CO)NC(=O)[C@@H]1CCCN1C(=O)CNC(=O)CNC(=O)[C@H](CCCNC(=N)N)NC(=O)[C@@H](NC(=O)[C@H](CC(C)C)NC(=O)[C@H](Cc1c[nH]c2ccccc12)NC(=O)[C@H](CCC(=O)O)NC(=O)[C@@H](NC(=O)[C@H](Cc1ccccc1)NC(=O)[C@H](CCC(=O)O)NC(=O)[C@H](CCCNC(=N)N)NC(=O)[C@@H](NC(=O)[C@H](C)NC(=O)[C@H](CCC(N)=O)NC(=O)[C@H](CCC(=O)O)NC(=O)[C@H](CCC(=O)O)NC(=O)[C@H](CC(C)C)NC(=O)[C@H](Cc1ccc(O)cc1)NC(=O)[C@H](CCCNC(=N)N)NC(=O)[C@H](CO)NC(=O)[C@@H](NC(=O)[C@@H](N)CC(=O)O)C(C)C)C(C)C)[C@@H](C)CC)C(C)C)C(=O)O)C(=O)O [compound 16] (H-DVSRYLEEQAVREFIEWLVRGGPSSGAPPPSK([AEEA-γGlu-Palmitoyl])-OH; N-terminus assumed)	> 20000	–	–	IC50 ([2]; Table 3, amino acid substitution variants of Jant4-K40, read-out: Bioactivity IC50): 18 nM
CCCCCCCCCCCCCCCC(=O)NCCCC[C@H](NC(=O)[C@H](CO)NC(=O)[C@@H]1CCCN1C(=O)[C@@H]1CCCN1C(=O)[C@@H]1CCCN1C(=O)[C@H](C)NC(=O)CNC(=O)[C@H](CO)NC(=O)[C@H](CO)NC(=O)[C@@H]1CCCN1C(=O)CNC(=O)CNC(=O)[C@H](CCCNC(=N)N)NC(=O)[C@@H](NC(=O)[C@H](CC(C)C)NC(=O)[C@H](Cc1c[nH]c2ccccc12)NC(=O)[C@H](CCC(=O)O)NC(=O)[C@@H](NC(=O)[C@H](Cc1ccccc1)NC(=O)[C@H](CCC(=O)O)NC(=O)[C@H](CCCNC(=N)N)NC(=O)[C@@H](NC(=O)[C@H](C)NC(=O)[C@H](CCC(N)=O)NC(=O)[C@H](CCC(=O)O)NC(=O)[C@H](CCC(=O)O)NC(=O)[C@H](CC(C)C)NC(=O)[C@H](Cc1ccc(O)cc1)NC(=O)[C@H](CO)NC(=O)[C@H](CO)NC(=O)[C@@H](NC(=O)[C@@H](N)CC(=O)O)C(C)C)C(C)C)[C@@H](C)CC)C(C)C)C(N)=O [compound 70] (H-DVSSYLEEQAVREFIEWLVRGGPSSGAPPPSK(Palmitoyl)-NH2)	> 20000	–	–	–
CCCCCCCCCCCCCCCC(=O)N[C@@H](CCC(=O)NCCOCCOCC(=O)NCCCC[C@H](NC(=O)[C@H](CO)NC(=O)[C@@H]1CCCN1C(=O)[C@@H]1CCCN1C(=O)[C@@H]1CCCN1C(=O)[C@H](C)NC(=O)CNC(=O)[C@H](CO)NC(=O)[C@H](CO)NC(=O)[C@@H]1CCCN1C(=O)CNC(=O)CNC(=O)[C@@H](NC(=O)[C@H](CCCNC(=N)N)NC(=O)[C@H](CC(C)C)NC(=O)[C@H](Cc1c[nH]c2ccccc12)NC(=O)[C@H](CCC(=O)O)NC(=O)[C@@H](NC(=O)[C@H](Cc1ccccc1)NC(=O)[C@H](CCC(=O)O)NC(=O)[C@H](CCCNC(=N)N)NC(=O)[C@@H](NC(=O)[C@H](C)NC(=O)[C@H](CCC(N)=O)NC(=O)[C@H](CCC(=O)O)NC(=O)[C@H](CCC(=O)O)NC(=O)[C@H](CC(C)C)NC(=O)[C@H](Cc1ccc(O)cc1)NC(=O)[C@H](CO)NC(=O)[C@H](CO)NC(=O)[C@@H](NC(=O)[C@@H](N)CC(=O)O)C(C)C)C(C)C)[C@@H](C)CC)C(C)C)C(=O)O)C(=O)O [compound 79]	> 20000	–	–	–
CCCCCCCCCCCCCCCC(=O)NCCCC[C@H](NC(=O)[C@H](CO)NC(=O)[C@@H]1CCCN1C(=O)[C@@H]1CCCN1C(=O)[C@@H]1CCCN1C(=O)[C@H](C)NC(=O)CNC(=O)[C@H](CO)NC(=O)[C@H](CO)NC(=O)[C@@H]1CCCN1C(=O)CNC(=O)CNC(=O)[C@H](CCCCN)NC(=O)[C@@H](NC(=O)[C@H](CC(C)C)NC(=O)[C@H](Cc1c[nH]c2ccccc12)NC(=O)[C@H](C)NC(=O)[C@@H](NC(=O)[C@H](Cc1ccccc1)NC(=O)[C@H](CCC(=O)O)NC(=O)[C@H](CCCNC(=N)N)NC(=O)[C@@H](NC(=O)[C@H](C)NC(=O)[C@@H](CCC(N)=O)NC(=O)[C@H](CCC(=O)O)NC(=O)[C@H](CCC(=O)O)NC(=O)[C@H](CC(C)C)NC(=O)[C@H](Cc1ccc(O)cc1)NC(=O)[C@H](CO)NC(=O)[C@H](CO)NC(=O)[C@@H](NC(=O)[C@@H](N)CC(=O)O)C(C)C)C(C)C)[C@@H](C)CC)C(C)C)C(N)=O [compound 86] (H-DVSSYLEE[dQ]AVREFIAWLVKGGPSSGAPPPSK(Palmitoyl)-NH2)	–	2200 (≈ 604 µM)	41	–
CCCCCCCCCCCCCCCC(=O)NCCCC[C@H](NC(=O)[C@H](CO)NC(=O)[C@@H]1CCCN1C(=O)[C@@H]1CCCN1C(=O)[C@@H]1CCCN1C(=O)[C@H](C)NC(=O)CNC(=O)[C@H](CO)NC(=O)[C@H](CO)NC(=O)[C@@H]1CCCN1C(=O)CNC(=O)CNC(=O)[C@H](CCCCN)NC(=O)[C@@H](NC(=O)[C@H](CC(C)C)NC(=O)[C@H](Cc1c[nH]c2ccccc12)NC(=O)[C@H](C)NC(=O)[C@@H](NC(=O)[C@H](Cc1ccccc1)NC(=O)[C@H](CCC(=O)O)NC(=O)[C@@H](CCCNC(=N)N)NC(=O)[C@@H](NC(=O)[C@H](C)NC(=O)[C@H](CCC(N)=O)NC(=O)[C@H](CCC(=O)O)NC(=O)[C@H](CCC(=O)O)NC(=O)[C@H](CC(C)C)NC(=O)[C@H](Cc1ccc(O)cc1)NC(=O)[C@H](CO)NC(=O)[C@H](CO)NC(=O)[C@@H](NC(=O)[C@@H](N)CC(=O)O)C(C)C)C(C)C)[C@@H](C)CC)C(C)C)C(N)=O [compound 87] (H-DVSSYLEEQAV[dR]EFIAWLVKGGPSSGAPPPSK(Palmitoyl)-NH2; N-terminus assumed)	–	800 (≈ 220 µM)	16	–
CCCCCCCCCCCCCCCC(=O)NCCCC[C@H](NC(=O)[C@H](CO)NC(=O)[C@@H]1CCCN1C(=O)[C@@H]1CCCN1C(=O)[C@@H]1CCCN1C(=O)[C@H](C)NC(=O)CNC(=O)[C@H](CO)NC(=O)[C@H](CO)NC(=O)[C@@H]1CCCN1C(=O)CNC(=O)CNC(=O)[C@H](CCCCN)NC(=O)[C@@H](NC(=O)[C@H](CC(C)C)NC(=O)[C@H](Cc1c[nH]c2ccccc12)NC(=O)[C@H](C)NC(=O)[C@@H](NC(=O)[C@H](Cc1ccccc1)NC(=O)[C@@H](CCC(=O)O)NC(=O)[C@H](CCCNC(=N)N)NC(=O)[C@@H](NC(=O)[C@H](C)NC(=O)[C@H](CCC(N)=O)NC(=O)[C@H](CCC(=O)O)NC(=O)[C@H](CCC(=O)O)NC(=O)[C@H](CC(C)C)NC(=O)[C@H](Cc1ccc(O)cc1)NC(=O)[C@H](CO)NC(=O)[C@H](CO)NC(=O)[C@@H](NC(=O)[C@@H](N)CC(=O)O)C(C)C)C(C)C)[C@@H](C)CC)C(C)C)C(N)=O [compound 88] (H-DVSSYLEEQAVR[dE]FIAWLVKGGPSSGAPPPSK(Palmitoyl)-NH2)	–	1700 (≈ 467 µM)	27	–
